Test results from paper PMC6264296, “1,3-Substituted Imidazolidine-2,4,5-triones: Synthesis and Inhibition of Cholinergic Enzymes” (Molecules, 2011).
Like-named read-outs stand apart in the source and are kept apart here.

Key:
[1] = target: T1, acetylcholinesterase from electric eel (Electrophorus electricus, UniProt O42275); experiment: biochemical
T1 construct: purchased Sigma
Protocol: (§1) The ability of all tested compounds to inhibit acetylcholinesterase from electric eel (Electrophorus electricus L.) and butyrylcholinesterase from equine serum (both purchased from Sigma) was tested. […] The IC50 values were determined by the spectrophotometric Ellman’s method.
(§2) The Ellman’s method is a simple, rapid and direct method to determine the SH and –S–S– group content in proteins. This method is widely used for measuring of cholinesterase activity and effectivity of cholinesterase inhibitors. Cholinesterase activity is measured indirectly by quantifying the concentration of 5-thio-2-nitrobenzoic acid (TNB) ion formed in the reaction between the thiol reagent 5,5′-dithiobis-2-nitrobenzoic acid (DTNB) and thiocholine, a product of substrate (i.e., acetylthiocholine, ATCh) hydrolysis by the cholinesterase. All tested compounds were dissolved in dioxane (concentration 0.01 M) and then diluted in demineralized water (concentration 0.001 M and 0.0001 M). The procedure of determination of IC50 is in detail described in [49]. For determination of IC50 values the inhibition was determined at 12 different compound concentrations with three replicates.

[2] = target: T2, butyrylcholinesterase from equine serum (Equus caballus, UniProt P81908); experiment: biochemical
T2 construct: butyrylcholinesterase isolated from equine serum; purchased Sigma; host or cells: equine serum
T2 sequence (P81908 whole entry): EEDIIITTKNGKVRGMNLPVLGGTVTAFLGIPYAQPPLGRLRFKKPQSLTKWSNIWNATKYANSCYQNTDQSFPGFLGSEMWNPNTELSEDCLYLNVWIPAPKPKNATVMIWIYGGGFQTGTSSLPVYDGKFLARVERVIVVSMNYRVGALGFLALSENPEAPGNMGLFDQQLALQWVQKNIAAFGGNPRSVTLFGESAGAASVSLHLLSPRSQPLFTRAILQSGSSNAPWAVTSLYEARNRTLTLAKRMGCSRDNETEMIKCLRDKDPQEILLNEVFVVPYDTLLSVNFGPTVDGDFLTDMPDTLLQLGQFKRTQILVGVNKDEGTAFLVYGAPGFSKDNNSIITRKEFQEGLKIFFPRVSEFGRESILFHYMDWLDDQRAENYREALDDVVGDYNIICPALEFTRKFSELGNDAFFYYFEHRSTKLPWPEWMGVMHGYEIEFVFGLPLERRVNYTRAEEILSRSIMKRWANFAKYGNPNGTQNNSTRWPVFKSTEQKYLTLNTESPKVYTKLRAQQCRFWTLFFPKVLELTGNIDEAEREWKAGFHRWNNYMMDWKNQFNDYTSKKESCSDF
Protocol: as §1, §2

[3] = Partition coefficient log Kow (n-octanol/water), shake-flask method; assay type: physicochemical; conditions: mean ± SD (n = 3 experiments)
Protocol: Before the partition coefficient is determined, the two solvents are mutually saturated at the temperature of the experiment. To do this, it is practical to shake two large stock bottles, one containing n-octanol and a sufficient quantity of water, and the other containing water and a sufficient quantity of n-octanol, for 24 hours on a mechanical shaker and then to let them stand long enough to allow the phases to separate.
The procedure of determination was the following: n-Octanol (2 mL) was placed in a test tube. Then an octanol solution of the chosen inhibitor (15 μL, 0.01 M) was added. Mixture was intensively shaken for 15 min. This mixture (1 mL) was placed into the cell, and its absorbance at the absorption maximum wavelength was measured. The reference solution was n-octanol. The value of absorbance corresponding to 100% of the chosen inhibitor in n-octanol was obtained. An n-octanol solution of the chosen inhibitor (0.01 M, 15 μL) was added into the mixture of n-octanol and water (1:1, total volume 4 mL). The mixture was intensively shaken for 15 min and then centrifuged (3,000 rpm, 10 min). One mL of the n-octanol layer was put into the cell, and its absorbance at the wavelength of absorption maximum was measured. The comparative solution was n-octanol again. The percentage content of chosen inhibitor in the octanol layer (%) was obtained. The n-octanol/water partition coefficient is defined as Pow = c1/c2, where c1 and c2 are molar concentrations of tested compounds in n-octanol and water. For each compound, at least three determinations were performed.

[4] = electric eel AChE, Ellman's method, mean ± SD (n = 3 experiments), read-out: AChE IC50
[5] = equine serum BChE, Ellman's method, mean ± SD (n = 3 experiments), read-out: BChE IC50

T1 sequence (O42275 24-633): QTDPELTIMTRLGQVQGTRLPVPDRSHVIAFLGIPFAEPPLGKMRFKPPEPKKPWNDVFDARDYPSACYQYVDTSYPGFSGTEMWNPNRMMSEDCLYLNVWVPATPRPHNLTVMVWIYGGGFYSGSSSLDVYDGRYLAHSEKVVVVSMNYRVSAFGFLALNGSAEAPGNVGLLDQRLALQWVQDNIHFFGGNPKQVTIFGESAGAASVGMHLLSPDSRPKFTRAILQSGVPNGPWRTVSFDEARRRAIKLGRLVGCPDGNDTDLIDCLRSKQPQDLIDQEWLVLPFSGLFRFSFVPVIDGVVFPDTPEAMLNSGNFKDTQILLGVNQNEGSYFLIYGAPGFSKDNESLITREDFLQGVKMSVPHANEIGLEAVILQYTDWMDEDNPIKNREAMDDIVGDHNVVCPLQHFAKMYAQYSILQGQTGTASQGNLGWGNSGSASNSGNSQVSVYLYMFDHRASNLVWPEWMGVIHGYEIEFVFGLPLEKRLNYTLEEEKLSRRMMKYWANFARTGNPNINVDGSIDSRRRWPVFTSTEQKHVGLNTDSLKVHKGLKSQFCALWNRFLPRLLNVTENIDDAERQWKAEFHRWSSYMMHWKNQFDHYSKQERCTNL

| SMILES | IC50 [1, 4] | IC50 [2, 5] | log Kow [3] | IC50 [1] | IC50 [2] | log Kow ([3]; listed as 4f) |
| --- | --- | --- | --- | --- | --- | --- |
| C[C@H](c1nc2ccc(F)cc2s1)N1C(=O)C(=O)N(c2ccccc2)C1=O [Compound 3a, 1-[(1R)-1-(6-Fluoro-1,3-benzothiazol-2-yl)ethyl]-3-phenylimidazolidine-2,4,5-trione] | 21.4 ± 0.19 µM | 14.5 ± 0.21 µM | – | – | – | – |
| C[C@H](c1nc2ccc(F)cc2s1)N1C(=O)C(=O)N(c2cccc(C(F)(F)F)c2)C1=O [Compound 3b, 1-(3-Trifluoromethylphenyl)-3-[(1R)-1-(6-fluoro-1,3-benzothiazol-2-yl)ethyl]imidazolidine-2,4,5-trione] | 23.4 ± 0.28 µM | 17.4 ± 0.37 µM | 1.12 ± 0.15 | – | – | – |
| COc1ccc(N2C(=O)C(=O)N([C@H](C)c3nc4ccc(F)cc4s3)C2=O)cc1 [Compound 3c, 1-(4-Methoxyphenyl)-3-[(1R)-1-(6-fluoro-1,3-benzothiazol-2-yl)ethyl]imidazolidine-2,4,5-trione] | 22.4 ± 0.21 µM | 13.2 ± 0.22 µM | 0.69 ± 0.02 | – | – | – |
| CC(C)c1ccc(N2C(=O)C(=O)N([C@H](C)c3nc4ccc(F)cc4s3)C2=O)cc1 [Compound 3d, 1-(4-Isopropylphenyl)-3-[(1R)-1-(6-fluoro-1,3-benzothiazol-2-yl)ethyl]imidazolidine-2,4,5-trione] | 16.6 ± 0.29 µM | 1.66 ± 0.14 µM | – | – | – | – |
| C[C@H](c1nc2ccc(F)cc2s1)N1C(=O)C(=O)N(c2ccc(Cl)cc2)C1=O [Compound 3e, 1-(4-Chlorophenyl)-3-[(1R)-1-(6-fluoro-1,3-benzothiazol-2-yl)ethyl]imidazolidine-2,4,5-trione] | – | – | – | 13.8 ± 0.13 µM | 25.7 ± 0.29 µM | – |
| C[C@H](c1nc2ccc(F)cc2s1)N1C(=O)C(=O)N(c2ccc(C#N)cc2)C1=O [Compound 3f, 1-(4-Cyanophenyl)-3-[(1R)-1-(6-fluoro-1,3-benzothiazol-2-yl)ethyl]imidazolidine-2,4,5-trione] | 19.1 ± 0.27 µM | 10.5 ± 0.18 µM | 0.41 ± 0.02 | – | – | lowest lipophilicity |
| CC(C)c1cccc(C(C)C)c1N1C(=O)C(=O)N([C@H](C)c2nc3ccc(F)cc3s2)C1=O [Compound 3g, 1-(2,6-Diisopropylphenyl)-3-[(1R)-1-(6-fluoro-1,3-benzothiazol-2-yl)ethyl]imidazolidine-2,4,5-trione] | 15.1 ± 0.29 µM | 30.2 ± 0.45 µM | 0.98 ± 0.08 | – | – | – |
| Cc1ccc(N2C(=O)C(=O)N([C@H](C)c3nc4ccc(F)cc4s3)C2=O)cc1Cl [Compound 3h, 1-(3-Chloro-4-methylphenyl)-3-[(1R)-1-(6-fluoro-1,3-benzothiazol-2-yl)ethyl]imidazolidine-2,4,5-trione] | – | – | 0.50 ± 0.02 | 15.5 ± 0.2 µM | 17 ± 0.1 µM | – |
| C[C@H](c1nc2ccc(F)cc2s1)N1C(=O)C(=O)N(c2cc(Cl)cc(Cl)c2)C1=O [Compound 3j, 1-(3,5-Dichlorophenyl)-3-[(1R)-1-(6-fluoro-1,3-benzothiazol-2-yl)ethyl]imidazolidine-2,4,5-trione] | – | – | 0.77 ± 0.03 | 17 ± 0.38 µM | 29.5 ± 0.39 µM | – |
| C[C@H](c1nc2ccc(F)cc2s1)N1C(=O)C(=O)N(Cc2ccccc2)C1=O [Compound 3k, 1-Benzyl-3-[(1R)-1-(6-fluoro-1,3-benzothiazol-2-yl)ethyl]imidazolidine-2,4,5-trione] | 18.6 ± 0.16 µM | 12.6 ± 0.11 µM | 1.06 ± 0.09 | – | – | – |
